Data taken from US4269834A, “Copper complexes of isoquinazolines” (priority 1977, dated 1981).
In brackets after ≈: the same amount, converted by molar mass. Read-outs that look alike come from different tables or passages of the source.

Columns and labels:
Spiroplasma citri = assay: Activity against Spiroplasma citri (MIC); assay type: cell-based; settings: Table IVb; with Cu (50 μg/ml Cu^2+)
Source text: (§1) The following tables show some activities--expressed as minimum inhibiting concentration (MIC)--of the prepared compounds against various micro-organisms. The compounds are identified by reference to the Example in which they are described. When more than one compound is mentioned in an Example, they are distinguished by a number between parentheses, corresponding to their order of occurrence, for instance: VI (2) refers to the second compound prepared according to Example VI. The term "with Cu" refers to tests conducted in media containing 50 μg/ml Cu^2+.
(§2) The activities of the following compounds, not mentioned in the Examples, were also measured.

Mycoplasma gallisepticum = assay: Activity against Mycoplasma gallisepticum (minimum inhibiting concentration); assay type: cell-based; settings: for MIC: without added Cu; for MIC with Cu: media containing 50 μg/ml Cu^2+; for MIC M. gall. with Cu: with Cu (50 μg/ml Cu^2+)
Source text: as §1, §2

[1] = Mycoplasmoides gallisepticum, Table I, read-out: MIC
[2] = Mycoplasmoides gallisepticum, Table IVb, read-out: MIC M. gall.

Row | SMILES | MIC (Mycoplasma gallisepticum; Table I) [µg/mL] | MIC with Cu (Mycoplasma gallisepticum; Table I) [µg/mL] | further results
1 | COc1ccc2ccc3ccc(OC)nc3c2n1 [H] |  |  | MIC S.Citri (with Cu) (Spiroplasma citri): 1.5 µg/mL (≈ 6.24 µM)
2 | Cc1cccc(-c2cc3ccccc3c(N)n2)n1.Cc1cccc(-c2cc3ccccc3c(N)n2)n1.O=[N+]([O-])[O-].O=[N+]([O-])[O-].[Cu+2] [VI (2), bis[1-amino-3-(6-methyl-2-pyridyl)isoquinoline]cupric nitrate] | 0.8 |  | 
3 | Nc1nc(-c2ncc[nH]2)cc2ccccc12.Nc1nc(-c2ncc[nH]2)cc2ccccc12.O=[N+]([O-])[O-].O=[N+]([O-])[O-].[Cu+2] [XIXb (3), Bis[1-amino-3-(1H-imidazole-2-yl)isoquinoline]cupric nitrate] | 50 | 3 | 
4 | COc1cc2cc(-c3ccccn3)nc(N)c2cc1OC [VIIIa] |  | 12.5 | MIC (Mycoplasma gallisepticum; [1]): 100 µg/mL (≈ 355 µM)
5 | C=Cn1ccnc1-c1nc(N)c2ccccc2n1.C=Cn1ccnc1-c1nc(N)c2ccccc2n1.O=[N+]([O-])[O-].O=[N+]([O-])[O-].[Cu+2] [XVIIIb (3), Bis[4-amino-2-(1-ethenyl-1H-imidazole-2-yl)quinazoline]cupric nitrate] | 12.5 | 0.2 | 
6 | Cn1ccnc1-c1nc(N)c2ccccc2n1.Cn1ccnc1-c1nc(N)c2ccccc2n1.O=[N+]([O-])[O-].O=[N+]([O-])[O-].[Cu+2] [XVIb (3), Bis[4-amino-2-(1-methyl-1H-imidazole-2-yl)quinazoline]cupric nitrate] | 12.5 | 0.2 | 
7 | Cc1cccc(-c2cc3ccccc3c(N)n2)n1.O=[N+]([O-])[O-].O=[N+]([O-])[O-].[Cu+2] [IVc, Mono[1-amino-3-(6-methyl-2-pyridyl)isoquinoline]cupric nitrate] | 0.8 |  | 
8 | Cc1cccc2c(N)nc(-c3ccccn3)cc12 [VIIIb] |  | 0.2 | MIC (Mycoplasma gallisepticum; [1]): 1.5 µg/mL (≈ 6.38 µM)
9 | Cc1ccc2cc(-c3ccccn3)nc(N)c2c1.Cc1ccc2cc(-c3ccccn3)nc(N)c2c1.O=[N+]([O-])[O-].[Cu+] [IIb, Bis[1-amino-7-methyl-3-(2-pyridyl)isoquinoline]cuprous nitrate] | 6 |  | 
10 | Cn1ccnc1-c1cc2ccccc2c(N)n1.O=[N+]([O-])[O-].O=[N+]([O-])[O-].[Cu+2] [XVb (2), mono[1-amino-3-(1-methyl-1H-imidazole-2-yl)isoquinoline]cupric nitrate] | 12.5 | 1.5 | 
11 | CCc1ccc2cc(-c3ccccn3)nc(N)c2c1 [VIIIk] |  | 0.2 | 
12 | Nc1nc(-c2ccccn2)cc2ccccc12.O=[N+]([O-])[O-].O=[N+]([O-])[O-].[Cu+2] [IVa, Mono[1-amino-3-(2-pyridyl)isoquinoline]cupric nitrate] | 1.5 |  | 
13 | Nc1ccc2ccc3cccnc3c2n1 [F] |  |  | MIC (Mycoplasma gallisepticum; [2]): 25 µg/mL (≈ 128 µM); MIC M. gall. with Cu (Mycoplasma gallisepticum; Table IVb): 0.8 µg/mL
14 | Clc1ccc2nc(-c3ccccn3)ncc2c1 [C] |  |  | MIC M. gall. with Cu (Mycoplasma gallisepticum; Table IVb): 0.8 µg/mL
15 | CCCCCCCCCCCc1c(-c2ccccn2)ncc2ccccc12 [D] |  |  | MIC S.Citri (with Cu) (Spiroplasma citri): 0.8 µg/mL (≈ 2.22 µM)
16 | O=[N+]([O-])[O-].[Cu+].c1cnc2c(c1)ccc1cccnc12.c1cnc2c(c1)ccc1cccnc12 [IId, Bis(1,10-phenanthroline)cuprous nitrate] | 12.5 | 25 | 
17 | Nc1nc(-c2ccccn2)cc2ccc(Cl)cc12 [VIIIi] |  | 0.2 | 
18 | Cc1ccc2cc(-c3ccccn3)nc(N)c2c1 [VIIId] |  | 0.2 | MIC (Mycoplasma gallisepticum; [1]): 1.5 µg/mL (≈ 6.38 µM)

Row | SMILES | MIC (Mycoplasma gallisepticum; Table I) [µg/mL] | MIC with Cu (Mycoplasma gallisepticum; Table I) [µg/mL] | further results
19 | Nc1nc(-c2ccccn2)cc2ccccc12.Nc1nc(-c2ccccn2)cc2ccccc12.O=[N+]([O-])[O-].O=[N+]([O-])[O-].[Cu+2] [Example V, bis[1-amino-3-(2-pyridyl)isoquinoline]cupric nitrate] | 3 |  | 
20 | CCCc1nc(-c2ccccn2)cc2ccccc12.Cl [XIIIf, 1-propyl-3-(2-pyridyl)isoquinoline hydrochloride] |  | 0.03 | 
21 | Cc1ccc2ccc3ccc(C)nc3c2n1 [A] |  |  | MIC S.Citri (with Cu) (Spiroplasma citri): 0.03 µg/mL (≈ 0.144 µM)
22 | C=Cn1ccnc1-c1nc(N)c2ccccc2n1.O=[N+]([O-])[O-].O=[N+]([O-])[O-].[Cu+2] [XVIIIb (2), Mono[4-amino-2-(1-ethenyl-1H-imidazole-2-yl)quinazoline]cupric nitrate] | 6 | 0.2 | 
23 | Clc1ccc2ccc3ccc(Cl)nc3c2n1.Clc1ccc2ccc3ccc(Cl)nc3c2n1.O=[N+]([O-])[O-].[Cu+] [IIe, Bis(2,9-dichloro-1,10-phenanthroline)cuprous nitrate] | 25 |  | 
24 | Cl.Nc1nc(-c2ccccn2)cc2cc(Cl)ccc12 [Example VII, 1-amino-6-chloro-3-(2-pyridyl)isoquinoline hydrochloride] |  | 0.4 | 
25 | Cl.Nc1nc(-c2ccccn2)cc2cc(Br)ccc12 [Example X, 1-Amino-6-bromo-3-(2-pyridyl)isoquinoline hydrochloride] |  | 0.4 | 
26 | Nc1nc(-c2ccccn2)cc2ccccc12.Nc1nc(-c2ccccn2)cc2ccccc12.O=[N+]([O-])[O-].[Cu+] [IIc, Bis[1-amino-3-(2-pyridyl)isoquinoline]cuprous nitrate] | 3 | 0.4 | 
27 | c1ccc(-c2ncc3ccccc3n2)nc1 [B] |  |  | MIC M. gall. with Cu (Mycoplasma gallisepticum; Table IVb): 0.5 µg/mL
28 | COc1ccc2ccc3cccnc3c2n1 [G] |  |  | MIC (Mycoplasma gallisepticum; [2]): > 100 µg/mL; MIC M. gall. with Cu (Mycoplasma gallisepticum; Table IVb): 3 µg/mL
29 | Nc1nc(-c2ncc[nH]2)nc2ccccc12.Nc1nc(-c2ncc[nH]2)nc2ccccc12.O=[N+]([O-])[O-].O=[N+]([O-])[O-].[Cu+2] [XXb (3), Bis[4-amino-2-(1H-imidazole-2-yl)quinazoline]cupric nitrate] | 50 | 6 | 
30 | C=Cn1ccnc1-c1cc2ccccc2c(N)n1.C=Cn1ccnc1-c1cc2ccccc2c(N)n1.O=[N+]([O-])[O-].O=[N+]([O-])[O-].[Cu+2] [XVIId (3), Bis[1-amino-3-(1-ethenyl-1H-imidazole-2-yl)isoquinoline]cupric nitrate] | 12.5 | 0.2 | 
31 | Nc1nc(-c2ccccn2)cc2c(Cl)cccc12.O=[N+]([O-])[O-].O=[N+]([O-])[O-].[Cu+2] [IVb, Mono[1-amino-5-chloro-3-(2-pyridyl)isoquinoline]cupric nitrate] | 0.8 |  | 
32 | C=Cn1ccnc1-c1nc(N)c2ccccc2n1 [Example XVIIIa, 4-amino-2-(1-ethenyl-1H-imidazole-2-yl)quinazoline] |  | 0.2 | MIC (Mycoplasma gallisepticum; [1]): > 100 µg/mL
33 | Nc1nc(-c2ncc[nH]2)nc2ccccc12.O=[N+]([O-])[O-].O=[N+]([O-])[O-].[Cu+2] [XXb (2), Mono[4-amino-2-(1H-imidazole-2-yl)quinazoline]cupric nitrate] | 25 | 1.5 | 
34 | Cc1ccc2c(N)nc(-c3ccccn3)cc2c1 [VIIIc] |  | 0.4 | MIC (Mycoplasma gallisepticum; [1]): 3 µg/mL (≈ 12.8 µM)
35 | C=Cn1ccnc1-c1cc2ccccc2c(N)n1.C=Cn1ccnc1-c1cc2ccccc2c(N)n1.O=[N+]([O-])[O-].[Cu+] [XVIId (1), Bis[1-amino-3-(1-ethenyl-1H-imidazole-2-yl)isoquinoline]cuprous nitrate] | 25 | 0.2 | 
36 | Cn1ccnc1-c1nc(N)c2ccccc2n1 [XVIa, 4-amino-2-(1-methyl-1H-imidazole-2-yl)quinazoline] |  | 0.2 | MIC (Mycoplasma gallisepticum; [1]): 25 µg/mL (≈ 111 µM)
